Data as given in ChEMBL document CHEMBL2016510 (J Med Chem, 2012).

Experiments:
[1] = molecular target: T1, Sodium channel protein type 5 subunit alpha (Homo sapiens, UniProt Q14524); experiment: Blockade of human full-length NaV1.5 expressed in HEK293 cells co-transfected with pCD8-IRES-hbeta1 assessed as 0.1 Hz of half-maximal tonic-induced channel current at -120 mV holding potential after 36 to 72 hrs by patch clamp assay; assay type: cell-based
[2] = molecular target: T1, Sodium channel protein type 5 subunit alpha; experiment: Blockade of human full-length NaV1.5 expressed in HEK293 cells co-transfected with pCD8-IRES-hbeta1 assessed as 10 Hz of use-dependent-induced channel current at -120 mV holding potential after 36 to 72 hrs by patch clamp assay; assay type: cell-based
[3] = Antiarrhythmic activity in guinea pig left atria assessed as increase of 1 Hz-induced alternating current arrhythmia at 10^-4 M after 60 mins relative to control; assay type: functional; conditions: Cavia porcellus, Cardiac atrium, 1 h
[4] = Antiarrhythmic activity in guinea pig left atria assessed as increase of 1 Hz-induced alternating current arrhythmia after 60 mins; assay type: functional, tissue-based; conditions: Cavia porcellus, Cardiac atrium, 1 h
[5] = Negative inotropic activity in guinea pig left atria assessed as decrease of 1 Hz current-induced developed tension at 5 x 10^-5 M relative to control; assay type: functional, Cavia porcellus, Cardiac atrium; parameters: scale not given: the % may be the effect or the level left
[6] = Negative chronotropic activity in guinea pig spontaneously beating right atria assessed as decrease in atrial rate at 10^-4 M relative to control; assay type: functional, Cavia porcellus, Cardiac atrium; parameters: scale not given: the % may be the effect or the level left
[7] = Negative inotropic activity in guinea pig left atria assessed as decrease of 1 Hz current-induced developed tension; assay type: functional, tissue-based; conditions: Cavia porcellus, Cardiac atrium
[8] = test system: Aorta; experiment: Vasorelaxant activity in potassium depolarized guinea pig aortic strip assessed as inhibition of calcium-induced contraction at 10^-4 M; assay type: functional, Cavia porcellus; parameters: scale not given: the % may be the effect or the level left
[9] = test system: Mus musculus; experiment: Neurotoxicity in mouse assessed as deffect in motor coordination at 25 to 50 mg/kg, po after 15 to 45 mins by rotarod test; assay type: toxicity, organism-based; parameters: route oral; conditions: in vivo
[10] = test system: HepG2; experiment: Cytotoxicity against human HepG2 cells assessed as cell viability after 2 hrs by MTT assay; assay type: cell-based; conditions: HepG2, 2 h
[11] = test system: Caco-2; experiment: Apparent permeability from apical to basolateral side in human Caco2 cells after 21 days by UV spectroscopy; assay type: ADME, cell-based
[12] = test system: Caco-2; experiment: Apparent permeability from basolateral to apical side in human Caco2 cells after 21 days by UV spectroscopy; assay type: ADME, cell-based
[13] = test system: Caco-2; experiment: Efflux ratio of permeability from basolateral to apical side to apical to basolateral side in human Caco2 cells after 21 days by UV spectroscopy; assay type: ADME, cell-based
[14] = Negative chronotropic activity in guinea pig spontaneously beating right atria assessed as decrease in atrial rate; assay type: functional; conditions: Cavia porcellus, Cardiac atrium
[15] = Negative inotropic activity in guinea pig left atria assessed as decrease of 1 Hz current-induced developed tension at 10^-4 M relative to control; assay type: functional, Cavia porcellus, Cardiac atrium; parameters: scale not given: the % may be the effect or the level left
[16] = Antiarrhythmic activity in guinea pig left atria assessed as increase of 1 Hz-induced alternating current arrhythmia at 5 x 10^-5 M after 60 mins relative to control; assay type: functional; conditions: Cavia porcellus, Cardiac atrium, 1 h
[17] = Negative inotropic activity in guinea pig left atria assessed as decrease of 1 Hz current-induced developed tension at 10^-6 M relative to control; assay type: functional, Cavia porcellus, Cardiac atrium; parameters: scale not given: the % may be the effect or the level left
[18] = […] chronotropic activity in guinea pig spontaneously beating right atria assessed as decrease in atrial rate at 5 x 10^-6 M relative to control; assay type: functional, Cavia porcellus, Cardiac atrium; parameters: scale not given: the % may be the effect or the level left
[19] = Negative inotropic activity in guinea pig left atria assessed as decrease of 1 Hz current-induced developed tension at 5 x 10^-7 M relative to control; assay type: functional, Cavia porcellus, Cardiac atrium; parameters: scale not given: the % may be the effect or the level left
[20] = […] chronotropic activity in guinea pig spontaneously beating right atria assessed as decrease in atrial rate at 10^-4 M relative to control; assay type: functional, Cavia porcellus, Cardiac atrium; parameters: scale not given: the % may be the effect or the level left
[21] = Negative chronotropic activity in guinea pig spontaneously beating right atria assessed as decrease in atrial rate at 5 x 10^-5 M relative to control; assay type: functional, Cavia porcellus, Cardiac atrium; parameters: scale not given: the % may be the effect or the level left

T1 sequence (Q14524 whole entry): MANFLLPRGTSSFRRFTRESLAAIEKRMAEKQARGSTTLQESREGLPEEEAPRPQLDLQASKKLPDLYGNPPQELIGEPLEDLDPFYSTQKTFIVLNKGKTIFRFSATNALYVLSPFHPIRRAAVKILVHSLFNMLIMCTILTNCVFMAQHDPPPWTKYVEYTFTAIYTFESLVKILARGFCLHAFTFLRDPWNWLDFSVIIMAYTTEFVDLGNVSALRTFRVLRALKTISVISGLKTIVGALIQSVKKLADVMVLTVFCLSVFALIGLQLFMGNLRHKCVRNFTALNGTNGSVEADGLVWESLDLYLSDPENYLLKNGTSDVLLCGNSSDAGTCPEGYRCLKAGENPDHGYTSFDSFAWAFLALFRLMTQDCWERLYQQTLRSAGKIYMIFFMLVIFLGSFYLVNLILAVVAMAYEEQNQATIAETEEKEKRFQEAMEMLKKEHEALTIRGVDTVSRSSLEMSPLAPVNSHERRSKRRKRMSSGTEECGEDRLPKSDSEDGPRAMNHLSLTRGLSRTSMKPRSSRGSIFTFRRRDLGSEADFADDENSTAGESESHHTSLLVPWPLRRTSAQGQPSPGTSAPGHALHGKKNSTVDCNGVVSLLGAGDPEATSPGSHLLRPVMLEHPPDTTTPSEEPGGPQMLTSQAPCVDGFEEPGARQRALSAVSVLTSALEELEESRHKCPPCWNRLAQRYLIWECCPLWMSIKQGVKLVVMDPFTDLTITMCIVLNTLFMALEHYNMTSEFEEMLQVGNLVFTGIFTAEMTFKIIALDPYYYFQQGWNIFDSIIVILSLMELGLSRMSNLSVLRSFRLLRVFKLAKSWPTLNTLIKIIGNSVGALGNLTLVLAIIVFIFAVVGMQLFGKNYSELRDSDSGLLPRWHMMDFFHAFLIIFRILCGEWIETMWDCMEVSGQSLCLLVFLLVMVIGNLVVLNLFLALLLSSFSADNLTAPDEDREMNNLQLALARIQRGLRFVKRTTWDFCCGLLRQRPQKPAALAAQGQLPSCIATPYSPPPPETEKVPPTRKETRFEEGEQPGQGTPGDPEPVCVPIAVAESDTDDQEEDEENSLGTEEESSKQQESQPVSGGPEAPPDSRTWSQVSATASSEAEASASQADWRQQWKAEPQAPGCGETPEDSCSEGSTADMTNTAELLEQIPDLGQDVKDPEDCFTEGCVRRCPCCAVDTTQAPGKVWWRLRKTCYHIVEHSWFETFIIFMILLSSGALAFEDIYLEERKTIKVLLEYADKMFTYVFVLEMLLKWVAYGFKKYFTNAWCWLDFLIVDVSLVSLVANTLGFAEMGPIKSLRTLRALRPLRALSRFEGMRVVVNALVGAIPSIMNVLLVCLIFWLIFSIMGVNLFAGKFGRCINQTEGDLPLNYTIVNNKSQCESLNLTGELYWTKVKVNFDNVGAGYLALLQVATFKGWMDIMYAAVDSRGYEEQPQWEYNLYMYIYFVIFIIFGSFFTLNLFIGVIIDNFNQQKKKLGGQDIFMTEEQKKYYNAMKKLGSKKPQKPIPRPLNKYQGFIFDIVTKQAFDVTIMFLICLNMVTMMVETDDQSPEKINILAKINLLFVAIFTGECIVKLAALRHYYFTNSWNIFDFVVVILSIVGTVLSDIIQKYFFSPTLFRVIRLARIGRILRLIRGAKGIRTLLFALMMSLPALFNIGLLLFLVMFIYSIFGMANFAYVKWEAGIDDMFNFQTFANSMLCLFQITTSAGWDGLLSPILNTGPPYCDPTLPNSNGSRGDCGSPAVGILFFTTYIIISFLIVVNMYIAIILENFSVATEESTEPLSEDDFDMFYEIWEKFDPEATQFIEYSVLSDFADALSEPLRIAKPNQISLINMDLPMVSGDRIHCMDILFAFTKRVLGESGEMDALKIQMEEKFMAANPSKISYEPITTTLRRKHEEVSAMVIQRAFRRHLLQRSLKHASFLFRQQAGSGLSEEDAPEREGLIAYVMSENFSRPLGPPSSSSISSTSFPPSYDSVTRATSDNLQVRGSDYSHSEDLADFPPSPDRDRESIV

Which IC50 [1] does the source give for `Cc1ccc(O)c(C)c1OCC(C)N` (racemic) here?
Its IC50 is 174 µM.

And the IC50 [2]?
Its IC50 is 30 µM.

What about the Emax at 100 µM [3] of the same compound?
The Emax at 100 µM was 72%.

What about the EC50 [4] of the same compound?
The EC50 was 10.2 µM.

What about the Activity [5] of the same compound?
Its Activity is 96%.

And the Activity [6]?
Its Activity is 39%.

What about the EC50 [7] of the same compound?
The EC50 was 0.098 µM.

And the Activity [8]?
Its Activity is 19%.

What about the Activity [9] of the same compound?
The Activity was “Non-toxic”.

What about the EC50 [10] of the same compound?
Its EC50 is > 2000 µM.

And the Papp [11]?
The Papp was 300.6 ×10⁻⁶ cm/s.

And the Papp [12]?
The Papp was 142.5 ×10⁻⁶ cm/s.

What about the Ratio [13] of the same compound?
Its Ratio is 2.1.

Which Emax at 100 µM [3] does the source give for `Cc1cccc(C)c1OCC(C)N` (racemic) [MEXILETINE] here?
The Emax at 100 µM was 64%.

And the EC50 [4]?
Its EC50 is 11.6 µM.

And the EC50 [7]?
The EC50 was 0.045 µM.

What about the EC30 [14] of the same compound?
Its EC30 is 0.014 µM.

What about the Activity [8] of the same compound?
The Activity was 5%.

What about the EC50 [10] of the same compound?
The EC50 was 2000 µM.

Which Emax at 100 µM [3] does the source give for `CCCCc1oc2ccccc2c1C(=O)c1cc(I)c(OCCN(CC)CC)c(I)c1` [AMIODARONE] here?
Its Emax at 100 µM is 10%.

What about the Activity [15] of the same compound?
Its Activity is 30%.

And the Activity [6]?
The Activity was 72%.

What about the Activity [8] of the same compound?
The Activity was 3%.

For `CCN(CC)CC(=O)Nc1c(C)cccc1C` [LIDOCAINE], which Emax at 50 µM [16] is on record?
Its Emax at 50 µM is 34%.

What about the Activity [17] of the same compound?
The Activity was 88%.

And the Activity [18]?
Its Activity is 29%.

And the EC50 [7]?
The EC50 was 0.017 µM.

What about the Activity [8] of the same compound?
The Activity was 14%.

For `CCN(CC)CCNC(=O)c1ccc(N)cc1` [PROCAINAMIDE], which Emax at 50 µM [16] is on record?
The Emax at 50 µM was 11%.

What does the source list for `CCN(CC)CCOC(=O)c1ccc(N)cc1` [PROCAINE]?
Activity [19]: 92%; Activity [20]: 9%; EC50 [7]: 0.014 µM; Activity [8]: 3%

What does the source list for `C=C[C@H]1CN2CC[C@H]1C[C@@H]2[C@@H](O)c1ccnc2ccc(OC)cc12` [QUINIDINE]?
Emax at 50 µM [16]: 69%; Activity [5]: 71%; EC30 [14]: 3.99 µM; Activity [8]: 30%; Activity [21]: 86%
